{"source": "patent US20230125429A1", "about": "(priority 2017, published 2023)", "assay_in_all_cases": "Growth inhibitory effect, one hour exposure (IncuCyte Zoom)", "type_in_all_cases": "cell-based, human", "key": {"AGS": {"tested_on": "AGS", "conditions": "Gastric cancer", "experimental": "(§1) Cancer cell lines and immortalized human cell lines were cultured in 1640 tissue culture medium (Corning, USA) with 10% fetal bovine serum in a standard tissue culture condition of 37° C. and 5% CO2.\n(§2) For primary hepatocytes, the seeded cells were monitored for up to 48 hours either without any treatment (as a control) or with various types of treatments. For primary keratinocytes, cells in 48-well plates were monitored either without any treatment or with various types of treatment for up to 96 hours. For HepG2, cells 96-well plates were monitored either without any treatment or with various types of treatments for up to 48 hours. The IncuCyte Zoom was set to take a set of images at fixed locations (4 per well for 96-well plates and 16 per well for 48-well plates and 12-well plates) every three hours.\n(§3) The one-hour exposure is intended to simulate the transient high concentrations within the liver as the results of either the first pass effects of some orally administered drugs, or of locally delivered drugs, anticipating that such a short term exposure is nevertheless sufficient to affect certain cell surface receptors without causing any significant off-target effects due to intracellular absorption. Such a strategy would also reduce false hits due to reversible cell cycle arrests.\n(§4) To address this possibility, we investigated whether other cell lines, including other HCC cell lines, cell lines from other type of cancers, as well as non-cancer immortalized/transformed cell lines, were also sensitive to Triptonide. Specifically, a total of 51 human cancer cell lines, representing 10 types of human cancers (6 non-small cell lung cancer cell lines, 5 colon cancer cell lines, 5 central nerve system cancer cell lines, 8 Melanomas cell lines, 4 ovarian cancer cell lines, 4 renal cancer cell lines, 2 prostate cancer cell lines, 3 breast cancer cell lines, 7 hepatocellular carcinoma cell lines, and 4 gastric cancer cell lines) were analyzed."}, "MALME-3M": {"tested_on": "MALME-3M", "conditions": "Melanoma", "experimental": "as §1, §2, §3, §4"}, "HCC-2998": {"tested_on": "HCC-2998", "conditions": "HCC-2998, Colon", "experimental": "as §1, §2, §3, §4"}, "MDA-MB-435": {"tested_on": "MDA-MB-435", "conditions": "MDA-MB-435, Melanoma", "experimental": "as §1, §2, §3, §4"}, "SW-620": {"tested_on": "SW-620", "conditions": "SW-620, Colon", "experimental": "as §1, §2, §3, §4"}, "BGC823": {"tested_on": "BGC823", "conditions": "BGC823, Gastric cancer", "experimental": "as §1, §2, §3, §4"}, "A498": {"tested_on": "A498", "conditions": "A498, Renal", "experimental": "as §1, §2, §3, §4"}, "SK-OV-3": {"tested_on": "SK-OV-3", "conditions": "SK-OV-3, Ovarian", "experimental": "as §1, §2, §3, §4"}, "SGC7901": {"tested_on": "SGC7901", "conditions": "SGC7901, Gastric cancer", "experimental": "as §1, §2, §3, §4"}, "HS 578T": {"tested_on": "HS 578T", "conditions": "Breast", "experimental": "as §1, §2, §3, §4"}, "UACC-62": {"tested_on": "UACC-62", "conditions": "UACC-62, Melanoma", "experimental": "as §1, §2, §3, §4"}, "OVCAR-3": {"tested_on": "OVCAR-3", "conditions": "OVCAR-3, Ovarian", "experimental": "as §1, §2, §3, §4"}, "MGC803": {"tested_on": "MGC803", "conditions": "MGC803, Gastric cancer", "experimental": "as §1, §2, §3, §4"}, "MCP7": {"tested_on": "MCP7", "conditions": "MCP7, Breast", "experimental": "as §1, §2, §3, §4"}, "DU-145": {"tested_on": "DU-145", "conditions": "DU-145, Prostate", "experimental": "as §1, §2, §3, §4"}, "HT29": {"tested_on": "HT29", "conditions": "HT29, Colon", "experimental": "as §1, §2, §3, §4"}, "SF-539": {"tested_on": "SF-539", "conditions": "SF-539, CNS", "experimental": "as §1, §2, §3, §4"}, "NCI/ADR-RES": {"tested_on": "NCI/ADR-RES", "conditions": "Ovarian", "experimental": "as §1, §2, §3, §4"}, "T-47D": {"tested_on": "T-47D", "conditions": "Breast", "experimental": "as §1, §2, §3, §4"}, "HOP-62": {"tested_on": "HOP-62", "conditions": "HOP-62, Non-Small Cell Lung", "experimental": "as §1, §2, §3, §4"}, "SK-MEL-2": {"tested_on": "SK-MEL-2", "conditions": "SK-MEL-2, Melanoma", "experimental": "as §1, §2, §3, §4"}, "SNB-19": {"tested_on": "SNB-19", "conditions": "SNB-19, CNS", "experimental": "as §1, §2, §3, §4"}, "LOX IMV1": {"tested_on": "LOX IMV1", "conditions": "LOX IMV1, Melanoma", "experimental": "as §1, §2, §3, §4"}, "EKVX": {"tested_on": "EKVX", "conditions": "Non-Small Cell Lung", "experimental": "as §1, §2, §3, §4"}, "HCT-15": {"tested_on": "HCT-15", "conditions": "HCT-15, Colon", "experimental": "as §1, §2, §3, §4"}, "UACC-257": {"tested_on": "UACC-257", "conditions": "UACC-257, Melanoma", "experimental": "as §1, §2, §3, §4"}, "SN12C": {"tested_on": "SN12C", "conditions": "Renal", "experimental": "as §1, §2, §3, §4"}, "NCI-H23": {"tested_on": "NCI-H23", "conditions": "NCI-H23, Non-Small Cell Lung", "experimental": "as §1, §2, §3, §4"}, "CAKI-1": {"tested_on": "CAKI-1", "conditions": "CAKI-1, Renal", "experimental": "as §1, §2, §3, §4"}, "OVCAR-4": {"tested_on": "OVCAR-4", "conditions": "OVCAR-4, Ovarian", "experimental": "as §1, §2, §3, §4"}, "NCI-H522": {"tested_on": "NCI-H522", "conditions": "NCI-H522, Non-Small Cell Lung", "experimental": "as §1, §2, §3, §4"}, "OVCAR-8": {"tested_on": "OVCAR-8", "conditions": "OVCAR-8, Ovarian", "experimental": "as §1, §2, §3, §4"}, "SK-MEL-28": {"tested_on": "SK-MEL-28", "conditions": "SK-MEL-28, Melanoma", "experimental": "as §1, §2, §3, §4"}, "PC-3": {"tested_on": "PC-3", "conditions": "PC-3, Prostate", "experimental": "as §1, §2, §3, §4"}}, "note": "Several values for one entry are separate records, joined by “and”; a condition that tells them apart may be missing. Equal values may be shown once."}
{"smiles": "CC(C)[C@]12O[C@H]1[C@@H]1O[C@@]13[C@@]1(C)CCC4=C(COC4=O)[C@@H]1C[C@@H]1O[C@@]13C2=O", "note": "[Triptonide]", "values": [{"measurement": "IC50", "setting": "AGS", "value": 4.07, "unit": "µM"}, {"measurement": "IC50", "setting": "MALME-3M", "value": 3.44, "unit": "µM"}, {"measurement": "IC50", "setting": "HCC-2998", "value": 2.77, "unit": "µM"}, {"measurement": "IC50", "setting": "MDA-MB-435", "value": 1.91, "unit": "µM"}, {"measurement": "IC50", "setting": "SW-620", "value": 11.6, "unit": "µM"}, {"measurement": "IC50", "setting": "BGC823", "value": 10.4, "unit": "µM"}, {"measurement": "IC50", "setting": "A498", "value": 4.34, "unit": "µM"}, {"measurement": "IC50", "setting": "SK-OV-3", "value": 3.89, "unit": "µM"}, {"measurement": "IC50", "setting": "SGC7901", "value": 12, "unit": "µM"}, {"measurement": "IC50", "setting": "HS 578T", "value": 1.86, "unit": "µM"}, {"measurement": "IC50", "setting": "UACC-62", "value": 9.35, "unit": "µM"}, {"measurement": "IC50", "setting": "OVCAR-3", "value": 4.9, "unit": "µM"}, {"measurement": "IC50", "setting": "MGC803", "value": 2.58, "unit": "µM"}, {"measurement": "IC50", "setting": "MCP7", "value": 0.592, "unit": "µM"}, {"measurement": "IC50", "setting": "DU-145", "value": 2.38, "unit": "µM"}, {"measurement": "IC50", "setting": "HT29", "value": 1.7, "unit": "µM"}, {"measurement": "IC50", "setting": "SF-539", "value": 1.14, "unit": "µM"}, {"measurement": "IC50", "setting": "NCI/ADR-RES", "value": 8.34, "unit": "µM"}, {"measurement": "IC50", "setting": "T-47D", "value": 1.81, "unit": "µM"}, {"measurement": "IC50", "setting": "HOP-62", "value": 9.23, "unit": "µM"}, {"measurement": "IC50", "setting": "SK-MEL-2", "value": 0.608, "unit": "µM"}, {"measurement": "IC50", "setting": "SNB-19", "value": 51, "unit": "µM"}, {"measurement": "IC50", "setting": "LOX IMV1", "value": 1.77, "unit": "µM"}, {"measurement": "IC50", "setting": "EKVX", "value": 2.38, "unit": "µM"}, {"measurement": "IC50", "setting": "HCT-15", "value": 1.18, "unit": "µM"}, {"measurement": "IC50", "setting": "UACC-257", "value": 16, "unit": "µM"}, {"measurement": "IC50", "setting": "SN12C", "value": 1.07, "unit": "µM"}, {"measurement": "IC50", "setting": "NCI-H23", "value": "0.41 µM and 0.415 µM"}, {"measurement": "IC50", "setting": "CAKI-1", "value": 6.15, "unit": "µM"}, {"measurement": "IC50", "setting": "OVCAR-4", "value": 1.54, "unit": "µM"}, {"measurement": "IC50", "setting": "NCI-H522", "value": 23.1, "unit": "µM"}, {"measurement": "IC50", "setting": "OVCAR-8", "value": 7.29, "unit": "µM"}, {"measurement": "IC50", "setting": "SK-MEL-28", "value": 17.8, "unit": "µM"}, {"measurement": "IC50", "setting": "PC-3", "value": 6.71, "unit": "µM"}]}
